Values quoted from earlier work in PMC9851200, “Multiparameter phenotypic screening for endogenous TFEB and TFE3 translocation identifies novel chemical series modulating lysosome function” (Autophagy, 2022).

Tests used:
Set-up in all cases: method as in original PKIS2 published data
[1] = target: T1, kinases (KINOMEscan panel) (Homo sapiens, UniProt Q16832); details: DDR2; Published KINOMEscan; ref original PKIS2 published data; cited from earlier work
T1 sequence (Q16832 22-855): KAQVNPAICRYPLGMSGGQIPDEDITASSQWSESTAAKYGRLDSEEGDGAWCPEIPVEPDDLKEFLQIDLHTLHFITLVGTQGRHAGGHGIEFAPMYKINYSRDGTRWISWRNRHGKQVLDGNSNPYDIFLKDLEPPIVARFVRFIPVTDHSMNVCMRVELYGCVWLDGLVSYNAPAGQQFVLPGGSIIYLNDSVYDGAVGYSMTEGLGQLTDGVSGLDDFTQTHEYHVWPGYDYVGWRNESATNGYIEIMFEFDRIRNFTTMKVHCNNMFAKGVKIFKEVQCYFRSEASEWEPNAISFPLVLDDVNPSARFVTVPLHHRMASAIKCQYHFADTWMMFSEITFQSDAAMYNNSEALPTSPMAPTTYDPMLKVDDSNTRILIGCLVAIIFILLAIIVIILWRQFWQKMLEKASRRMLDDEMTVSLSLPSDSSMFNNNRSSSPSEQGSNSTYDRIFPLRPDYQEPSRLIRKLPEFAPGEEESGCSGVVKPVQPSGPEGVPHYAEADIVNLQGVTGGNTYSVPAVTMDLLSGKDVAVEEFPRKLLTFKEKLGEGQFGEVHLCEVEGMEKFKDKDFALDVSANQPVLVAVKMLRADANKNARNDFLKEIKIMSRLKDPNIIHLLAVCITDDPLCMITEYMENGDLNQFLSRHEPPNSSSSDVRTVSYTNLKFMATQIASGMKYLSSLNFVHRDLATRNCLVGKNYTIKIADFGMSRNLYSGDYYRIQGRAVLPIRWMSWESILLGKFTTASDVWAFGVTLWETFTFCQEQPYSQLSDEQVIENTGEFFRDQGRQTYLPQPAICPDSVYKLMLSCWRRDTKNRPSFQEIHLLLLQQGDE

[2] = target: kinases (KINOMEscan panel) (Homo sapiens, UniProt Q04912); details: MST1R; Published KINOMEscan; ref original PKIS2 published data; cited from earlier work
[3] = target: kinases (KINOMEscan panel) (Homo sapiens, UniProt P49840); details: GSK3A; Published KINOMEscan; ref original PKIS2 published data; cited from earlier work
[4] = target: kinases (KINOMEscan panel) (Homo sapiens, UniProt P24723); details: kinase PRKCH; Published KINOMEscan; ref original PKIS2 published data; cited from earlier work
[5] = target: kinases (KINOMEscan panel) (Homo sapiens, UniProt P04626); details: kinase ERBB2; Published KINOMEscan; ref original PKIS2 published data; cited from earlier work
[6] = target: kinases (KINOMEscan panel) (Homo sapiens, UniProt P42684); details: ABL2; Published KINOMEscan; ref original PKIS2 published data; cited from earlier work
[7] = target: T2, kinases (KINOMEscan panel) (Homo sapiens, UniProt Q8NE63); details: kinase HIPK4; Published KINOMEscan; ref original PKIS2 published data; cited from earlier work
T2 sequence (Q8NE63 1-616): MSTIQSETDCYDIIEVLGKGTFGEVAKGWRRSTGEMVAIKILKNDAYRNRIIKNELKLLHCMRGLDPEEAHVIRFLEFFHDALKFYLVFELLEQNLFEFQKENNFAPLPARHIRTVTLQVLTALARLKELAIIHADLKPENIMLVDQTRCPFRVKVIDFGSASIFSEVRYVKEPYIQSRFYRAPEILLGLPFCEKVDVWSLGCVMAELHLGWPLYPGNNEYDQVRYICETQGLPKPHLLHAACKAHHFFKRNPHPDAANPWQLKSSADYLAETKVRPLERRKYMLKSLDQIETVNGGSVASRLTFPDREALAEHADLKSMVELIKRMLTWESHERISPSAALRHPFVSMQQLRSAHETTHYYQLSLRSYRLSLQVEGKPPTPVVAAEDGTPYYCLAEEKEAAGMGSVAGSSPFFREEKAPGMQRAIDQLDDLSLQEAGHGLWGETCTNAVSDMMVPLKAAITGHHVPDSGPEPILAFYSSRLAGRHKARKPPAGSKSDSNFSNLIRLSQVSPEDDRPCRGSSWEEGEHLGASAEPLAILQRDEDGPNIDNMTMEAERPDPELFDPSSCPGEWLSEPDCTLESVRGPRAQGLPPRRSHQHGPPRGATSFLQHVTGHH

[8] = target: kinases (KINOMEscan panel) (Homo sapiens, UniProt Q96J92); details: WNK4; Published KINOMEscan; ref original PKIS2 published data; cited from earlier work
[9] = target: kinases (KINOMEscan panel) (Homo sapiens, UniProt P08069); details: kinase IGF1R; Published KINOMEscan; ref original PKIS2 published data; cited from earlier work
[10] = target: kinases (KINOMEscan panel) (Homo sapiens, UniProt O75116); details: kinase ROCK2; Published KINOMEscan; ref original PKIS2 published data; cited from earlier work
[11] = target: kinases (KINOMEscan panel) (Homo sapiens, UniProt Q9H0K1); details: kinase SIK2; Published KINOMEscan; ref original PKIS2 published data; cited from earlier work
Sequence of kinases (KINOMEscan panel) (Homo sapiens, UniProt Q9H0K1) (Q9H0K1 whole entry): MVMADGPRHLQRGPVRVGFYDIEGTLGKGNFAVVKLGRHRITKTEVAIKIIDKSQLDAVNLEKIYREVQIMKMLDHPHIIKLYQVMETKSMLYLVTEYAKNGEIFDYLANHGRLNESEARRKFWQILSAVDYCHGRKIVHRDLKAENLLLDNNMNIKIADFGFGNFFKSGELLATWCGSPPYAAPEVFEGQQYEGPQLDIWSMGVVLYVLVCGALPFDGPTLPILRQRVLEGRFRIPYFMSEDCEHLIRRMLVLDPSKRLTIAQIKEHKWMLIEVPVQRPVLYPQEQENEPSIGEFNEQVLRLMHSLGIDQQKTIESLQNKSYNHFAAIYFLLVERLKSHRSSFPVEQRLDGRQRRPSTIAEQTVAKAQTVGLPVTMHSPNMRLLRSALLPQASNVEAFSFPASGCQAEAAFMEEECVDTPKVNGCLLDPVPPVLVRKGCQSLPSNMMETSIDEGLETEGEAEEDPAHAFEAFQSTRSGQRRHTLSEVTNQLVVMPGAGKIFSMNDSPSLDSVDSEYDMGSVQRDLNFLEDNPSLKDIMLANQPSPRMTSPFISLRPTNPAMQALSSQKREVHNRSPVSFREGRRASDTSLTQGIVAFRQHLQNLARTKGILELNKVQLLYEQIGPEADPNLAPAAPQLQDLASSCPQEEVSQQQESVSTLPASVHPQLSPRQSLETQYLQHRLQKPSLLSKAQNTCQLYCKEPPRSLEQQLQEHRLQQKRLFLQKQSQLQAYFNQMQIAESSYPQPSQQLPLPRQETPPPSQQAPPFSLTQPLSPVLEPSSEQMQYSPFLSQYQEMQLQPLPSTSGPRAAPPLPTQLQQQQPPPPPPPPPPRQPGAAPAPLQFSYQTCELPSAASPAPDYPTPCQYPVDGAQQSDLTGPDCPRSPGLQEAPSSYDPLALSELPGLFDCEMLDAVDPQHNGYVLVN

Sequence of kinases (KINOMEscan panel) (Homo sapiens, UniProt O75116) (O75116 whole entry): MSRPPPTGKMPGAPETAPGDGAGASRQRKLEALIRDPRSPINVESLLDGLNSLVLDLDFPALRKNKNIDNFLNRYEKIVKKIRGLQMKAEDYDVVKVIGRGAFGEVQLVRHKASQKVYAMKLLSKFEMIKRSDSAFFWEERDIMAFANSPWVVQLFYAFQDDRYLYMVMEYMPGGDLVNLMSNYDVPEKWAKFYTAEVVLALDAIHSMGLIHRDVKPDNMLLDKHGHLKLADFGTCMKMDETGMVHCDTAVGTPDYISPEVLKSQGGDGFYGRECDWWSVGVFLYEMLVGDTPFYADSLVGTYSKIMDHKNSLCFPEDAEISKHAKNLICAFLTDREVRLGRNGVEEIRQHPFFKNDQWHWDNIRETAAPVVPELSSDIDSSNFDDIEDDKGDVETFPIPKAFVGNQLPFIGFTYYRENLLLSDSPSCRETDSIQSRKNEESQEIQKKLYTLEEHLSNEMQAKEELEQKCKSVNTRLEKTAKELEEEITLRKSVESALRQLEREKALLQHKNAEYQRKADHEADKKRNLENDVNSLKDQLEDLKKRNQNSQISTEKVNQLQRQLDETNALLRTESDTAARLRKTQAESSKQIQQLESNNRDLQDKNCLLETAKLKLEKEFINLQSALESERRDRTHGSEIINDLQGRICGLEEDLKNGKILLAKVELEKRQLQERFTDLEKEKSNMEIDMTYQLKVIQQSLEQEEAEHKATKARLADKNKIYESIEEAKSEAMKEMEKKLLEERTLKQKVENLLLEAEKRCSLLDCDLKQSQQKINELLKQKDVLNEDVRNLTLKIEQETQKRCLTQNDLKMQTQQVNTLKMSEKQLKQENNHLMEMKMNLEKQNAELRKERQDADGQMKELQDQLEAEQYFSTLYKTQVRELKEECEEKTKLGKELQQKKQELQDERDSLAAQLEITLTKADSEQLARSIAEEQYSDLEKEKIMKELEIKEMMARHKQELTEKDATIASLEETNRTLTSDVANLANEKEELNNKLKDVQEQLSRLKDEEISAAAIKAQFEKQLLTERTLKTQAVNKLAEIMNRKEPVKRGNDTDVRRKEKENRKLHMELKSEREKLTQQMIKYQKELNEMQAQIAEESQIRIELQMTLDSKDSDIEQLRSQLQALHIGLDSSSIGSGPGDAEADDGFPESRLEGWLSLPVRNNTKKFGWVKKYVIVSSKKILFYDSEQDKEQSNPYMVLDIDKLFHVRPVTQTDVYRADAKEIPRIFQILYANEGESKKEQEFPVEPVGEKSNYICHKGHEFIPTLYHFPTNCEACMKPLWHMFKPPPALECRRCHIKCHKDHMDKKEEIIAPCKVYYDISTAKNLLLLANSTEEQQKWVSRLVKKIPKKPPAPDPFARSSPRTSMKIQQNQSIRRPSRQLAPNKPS
Sequence of kinases (KINOMEscan panel) (Homo sapiens, UniProt P08069) (P08069 31-1367): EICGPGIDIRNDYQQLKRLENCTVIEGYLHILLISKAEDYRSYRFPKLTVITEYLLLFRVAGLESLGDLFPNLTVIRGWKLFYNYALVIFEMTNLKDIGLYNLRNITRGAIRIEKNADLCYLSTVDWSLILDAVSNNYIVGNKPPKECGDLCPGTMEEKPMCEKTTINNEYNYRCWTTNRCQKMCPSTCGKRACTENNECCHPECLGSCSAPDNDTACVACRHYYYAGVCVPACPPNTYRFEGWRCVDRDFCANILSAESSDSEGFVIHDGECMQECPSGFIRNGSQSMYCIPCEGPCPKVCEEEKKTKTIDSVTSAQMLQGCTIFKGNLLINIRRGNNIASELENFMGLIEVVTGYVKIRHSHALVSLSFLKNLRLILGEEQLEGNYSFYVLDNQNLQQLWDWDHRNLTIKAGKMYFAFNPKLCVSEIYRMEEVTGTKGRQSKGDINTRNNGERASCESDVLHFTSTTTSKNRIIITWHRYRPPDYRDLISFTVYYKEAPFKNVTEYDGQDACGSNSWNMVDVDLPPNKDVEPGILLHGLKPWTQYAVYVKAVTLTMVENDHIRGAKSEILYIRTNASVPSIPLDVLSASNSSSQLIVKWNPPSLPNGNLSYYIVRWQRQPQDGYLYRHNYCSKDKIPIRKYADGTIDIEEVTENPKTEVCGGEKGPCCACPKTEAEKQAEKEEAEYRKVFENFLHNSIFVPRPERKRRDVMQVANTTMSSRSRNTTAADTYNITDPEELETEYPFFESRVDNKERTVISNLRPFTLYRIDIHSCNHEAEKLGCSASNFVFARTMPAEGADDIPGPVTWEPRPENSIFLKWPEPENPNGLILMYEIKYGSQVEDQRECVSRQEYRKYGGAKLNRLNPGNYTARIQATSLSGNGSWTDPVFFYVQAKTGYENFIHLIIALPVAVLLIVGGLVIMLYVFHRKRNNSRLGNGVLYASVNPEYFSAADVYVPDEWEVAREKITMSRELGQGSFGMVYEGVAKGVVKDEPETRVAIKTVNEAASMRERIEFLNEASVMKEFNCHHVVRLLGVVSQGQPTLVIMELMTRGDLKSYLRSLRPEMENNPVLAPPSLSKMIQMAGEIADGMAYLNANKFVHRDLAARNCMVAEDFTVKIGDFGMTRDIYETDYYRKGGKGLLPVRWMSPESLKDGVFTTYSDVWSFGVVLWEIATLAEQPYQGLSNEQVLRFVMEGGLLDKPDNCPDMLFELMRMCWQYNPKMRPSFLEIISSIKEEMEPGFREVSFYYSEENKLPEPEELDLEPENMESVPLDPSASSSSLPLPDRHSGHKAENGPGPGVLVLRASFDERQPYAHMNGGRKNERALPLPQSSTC
Sequence of kinases (KINOMEscan panel) (Homo sapiens, UniProt P49840) (P49840 whole entry): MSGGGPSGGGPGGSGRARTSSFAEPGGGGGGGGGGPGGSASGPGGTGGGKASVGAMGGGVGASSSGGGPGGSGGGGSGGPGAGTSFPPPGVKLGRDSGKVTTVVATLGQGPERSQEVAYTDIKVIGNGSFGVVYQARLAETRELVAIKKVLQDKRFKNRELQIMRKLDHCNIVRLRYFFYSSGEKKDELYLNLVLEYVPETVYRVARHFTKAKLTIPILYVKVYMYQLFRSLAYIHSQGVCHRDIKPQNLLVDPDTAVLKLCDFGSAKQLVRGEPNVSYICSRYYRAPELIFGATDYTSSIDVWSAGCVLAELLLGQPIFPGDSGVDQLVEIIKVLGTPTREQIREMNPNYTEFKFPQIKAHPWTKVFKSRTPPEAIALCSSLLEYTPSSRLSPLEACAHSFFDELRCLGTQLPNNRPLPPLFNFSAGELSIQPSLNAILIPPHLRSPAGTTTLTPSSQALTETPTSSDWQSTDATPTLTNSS
Sequence of kinases (KINOMEscan panel) (Homo sapiens, UniProt P24723) (P24723 whole entry): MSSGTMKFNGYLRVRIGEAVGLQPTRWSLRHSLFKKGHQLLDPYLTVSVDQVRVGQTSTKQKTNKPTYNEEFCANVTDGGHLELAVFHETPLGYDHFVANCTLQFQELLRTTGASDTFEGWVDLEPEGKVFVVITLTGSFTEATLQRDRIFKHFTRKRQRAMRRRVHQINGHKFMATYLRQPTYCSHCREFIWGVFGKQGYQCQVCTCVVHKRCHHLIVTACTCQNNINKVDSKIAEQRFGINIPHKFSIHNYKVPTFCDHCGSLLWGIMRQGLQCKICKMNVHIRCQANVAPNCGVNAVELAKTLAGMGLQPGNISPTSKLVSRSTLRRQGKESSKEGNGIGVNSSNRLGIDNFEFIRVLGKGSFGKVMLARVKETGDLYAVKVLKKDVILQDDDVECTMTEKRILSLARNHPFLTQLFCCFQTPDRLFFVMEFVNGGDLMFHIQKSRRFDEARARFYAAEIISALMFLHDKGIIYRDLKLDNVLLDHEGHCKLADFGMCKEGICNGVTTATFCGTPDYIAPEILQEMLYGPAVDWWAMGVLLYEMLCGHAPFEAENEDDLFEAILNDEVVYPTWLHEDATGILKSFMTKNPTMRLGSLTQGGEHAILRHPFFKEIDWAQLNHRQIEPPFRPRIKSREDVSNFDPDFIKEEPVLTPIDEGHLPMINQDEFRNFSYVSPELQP

For Cc1cccc(-c2nc(Nc3ccncc3)c3ccccc3n2)n1 [NK215], the “KINOMEscan DDR2” value [1] is listed as 45, the “KINOMEscan MST1R” value [2] is listed as 0 and the “KINOMEscan GSK3A” value [3] is listed as 4. The “KINOMEscan PRKCH” value [4] was 0, the “KINOMEscan ERBB2” value [5] was 7 and the “KINOMEscan ABL2” value [6] was 22. For the same molecule, the “KINOMEscan HIPK4” value [7] was 19, the “KINOMEscan WNK4” value [8] was 0 and the “KINOMEscan IGF1R” value [9] was 0. For the same molecule, the “KINOMEscan ROCK2” value [10] was 0 and the “KINOMEscan SIK2” value [11] was 0.
